Assays:
rhACE2 = target: T1, rhACE2 (Homo sapiens, UniProt Q9BYF1); assay: SPR assay with rhACE2; type: binding; settings: rhACE2 on chip, 5% DMSO–1.05× PBS
T1 construct: purchased Proteintech
Method: To screen the potential targets of the MDAs in hypertension, a CVDPlatform (www.cbligand.org/CVD) was used as previously reported ([Zhang et al., 2016a]). The results of database screening were verified by virtual docking with Discovery Studio 3.5 (BIOVIA, San Diego, CA, United States) and then validated in the SPR assay. In the SPR assay, a solution of protein standards was prepared, and the concentration of recombinant human ACE (rhACE) protein and rhACE2 (Proteintech, Rosemont, IL, United States) solution was set to 500 μg ml^−1. […] Finally, the level of binding between the proteins and each molecule was determined based on the K d value.

Ang I = assay: serum Ang I by ELISA in SHRs after 14-day oral administration; type: in vivo, rat; settings: oral 14 days
Description: (§1) All three MDAs (BAC, BMC, and BHC) were purchased from Nature-Standard Co., Ltd. (Shanghai, China) and their purities were all over 98%. The anti-hypertensive effects of MDAs were studied in both acute and chronic experiments. The 16-week-old SHRs were used in animal experiments, and each group had six rats. In the acute experiment, drug administration was via i.v. injection. For i.v. injection, the animals were randomly assigned into four groups: vehicle (0.1% DMSO–0.9% salt solution, n = 6), low-dose group (0.6 mg kg^−1 body weight, n = 6), medium-dose group (2 mg kg^−1 body weight, n = 6), and high-dose group (6 mg kg^−1 body weight, n = 6). The drug was administered using a venous catheter. […] Blood pressure was recorded in real time.
(§2) Blood samples were collected from the left femoral artery of rats at the end point, followed by centrifugation at 1,000 × g for 15 min at 4°C. […] The concentrations of circulating ACE, ACE2, Ang I, Ang II, Ang (1–7), TNF-α, and IL-6 in serum were measured using the ELISA kits [ACE, cat#xy-R2401c, X-Y Biotechnology, Shanghai, China; ACE2, cat#xy-ACE2-Ra, X-Y Biotechnology; Ang I, cat#xy-E12541, X-Y Biotechnology; Ang II, cat#xy-R1430c, X-Y Biotechnology; Ang (1–7), cat#xy-Ang1-7-Ra, X-Y Biotechnology; TNF-α, cat#GM1149, Servicebio, Shanghai, China; IL-6, cat#GM1154, Servicebio] according to the manufacturer’s instructions. […]

ACE2 = ACE2 protein expression in HUVECs (Western blot, immunofluorescence); type: cell-based, human; settings: HUVECs, 25, 50, 100 μM, 24 h
Description: Human umbilical vein endothelial cells (HUVECs) were isolated from umbilical cords as previously described ([Jaffe et al., 1973]). They were purchased from ATCC (cat# CRL-1444, Manassas, VA, United States) and cultured in endothelial cell medium (ECM, ScienCell, Carlsbad, CA, United States) supplemented with 5% FBS, 1% endothelial cell growth supplement, and 1% antibiotics (Sigma, St. Louis, MO, United States). Cells harvested between the third and tenth passages were used in the experiments. Cells were cultured until they were ∼80% confluent. […]
After treatment with different concentrations of BAC (Control, DMSO, 25, 50, and 100 μM, dissolved in 0.1% DMSO–DMEM) for 24 h, the cells were washed with PBS three times, fixed in 4% paraformaldehyde for 20 min, permeabilized with 0.3% Triton X-100 for 20 min, and then blocked with 5% BSA for 30 min at room temperature of 25°C. […] The samples were analyzed using a confocal laser scanning microscope (Zeiss LSM 510 META, Oberkochen, Germany).
(§3) The cell samples and tissue sample were collected and placed in ice rapidly. […] Protein concentration in cell lysates was measured using a Bio-Rad DC Protein Assay Kit […]. […]

Ang (1–7) = assay: serum Ang (1–7) by ELISA in SHRs after 14-day oral administration; type: in vivo, rat; settings: oral 14 days
Description: as §1, §2

p-Akt = p-Akt in aorta of SHRs (Western blot); type: in vivo, rat; settings: vessel of SHRs, oral 14 days
Description: as §1, with “catheter. In chronic experiments, the animals were randomly assigned into five groups: vehicle (5% Tween 80–0.9% salt solution, n = 6), captopril group (5 mg kg^−1 body weight, n = 6), low-dose group (3 mg kg^−1 body weight, n = 6), medium-dose group (10 mg kg^−1 body weight, n = 6), and high-dose group (30 mg kg^−1 body weight, n = 6). Oral administration with drug or 5% Tween 80–0.9% salt solution was carried out once a day, and continued for 14 days.” for “catheter.”
as §3

T1 sequence (Q9BYF1 18-805): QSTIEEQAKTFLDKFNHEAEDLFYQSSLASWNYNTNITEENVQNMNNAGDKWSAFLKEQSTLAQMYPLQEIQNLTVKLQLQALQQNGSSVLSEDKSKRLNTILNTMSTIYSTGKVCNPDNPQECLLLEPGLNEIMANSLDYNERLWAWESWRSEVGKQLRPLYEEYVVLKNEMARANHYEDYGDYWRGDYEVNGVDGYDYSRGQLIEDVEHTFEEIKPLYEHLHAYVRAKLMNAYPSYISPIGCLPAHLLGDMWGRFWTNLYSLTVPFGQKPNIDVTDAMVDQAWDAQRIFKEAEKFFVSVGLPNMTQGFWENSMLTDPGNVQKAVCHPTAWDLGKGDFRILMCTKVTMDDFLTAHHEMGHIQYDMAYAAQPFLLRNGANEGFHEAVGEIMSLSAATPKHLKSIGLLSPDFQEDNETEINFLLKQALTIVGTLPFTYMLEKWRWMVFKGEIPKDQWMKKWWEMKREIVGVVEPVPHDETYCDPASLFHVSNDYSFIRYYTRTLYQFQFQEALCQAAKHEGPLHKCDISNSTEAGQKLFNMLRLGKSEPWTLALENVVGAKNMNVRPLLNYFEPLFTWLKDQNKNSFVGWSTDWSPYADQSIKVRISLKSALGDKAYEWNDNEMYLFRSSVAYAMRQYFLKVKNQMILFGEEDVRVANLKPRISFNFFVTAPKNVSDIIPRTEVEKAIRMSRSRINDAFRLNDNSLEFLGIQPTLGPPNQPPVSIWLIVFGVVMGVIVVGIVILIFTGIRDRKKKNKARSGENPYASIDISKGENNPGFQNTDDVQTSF

CCN1CC2(COC)C(O)CC(OC)C34C5CC6(O)C(OC)C(O)C(O)(C5C6OC(=O)c5ccccc5)C(C(OC)C23)C14 (centres unmarked) [BAC, Benzoylaconitine]
Kd (rhACE2): 3.12 µM | level of Ang I in blood (Ang I): did not change | protein expression of ACE2 (ACE2): does not affect | level of Ang (1–7) in blood (Ang (1–7)): significantly increased | p-Akt (p-Akt): activated

Reference: paper PMC8963105, “A Novel Modulator of the Renin–Angiotensin System, Benzoylaconitine, Attenuates Hypertension by Targeting ACE/ACE2 in Enhancing Vasodilation and Alleviating Vascular Inflammation” (Frontiers in Pharmacology, 2022)
